# How the values were obtained:
# Type in all cases: in vivo
# [1] = tested on: MALPA (Malva parviflora, smallflower malva); assay: Field trial, post-emergence directed spring application (March), California vineyards: visual weed control
# Source text: (§1) As used herein, selective pre- and post-emergence control of undesirable vegetation means preventing, reducing, killing, or otherwise adversely modifying the development of the undesirable vegetation in the presence of crop plants with limited adverse effect on the crop plants. For example, a broadleaf weed control of 80% (rated visually) with crop injury of less than or equal to 20% (rated visually) would constitute selective control. In some embodiments the adverse effect on crop plants is limited to less than 10% visually rated crop injury. Visual crop injury is a composite rating accounting for all phytotoxic effects including chlorosis, necrosis, growth inhibition, epinasty, delays in maturity and seed or fruit deformity. Visual weed control is a composite rating accounting for reductions in pest plant biomass and/or stand reduction.
# (§2) Small plot research experiments were conducted in Fresno, Calif., USA to evaluate the pre-emergence and post-emergence herbicidal weed control activity and the vines crop tolerance to pre-emergence and post-emergence application of Compound I and Compound II to the weeds. Application water volume of 100 to 187 liters per hectare (L/ha) was used for all experiments. All treatments were applied with a standard small plot carbon dioxide (CO2) backpack sprayer. All treatments were tank-mixed with Crop Oil Concentrate (COC), a well known adjuvant, at 2.34 L/ha. Experimental emulsifiable concentrate (EC) formulations were used for Compounds I and II. The dimethylammonium (DMA) salt of glyphosate was used in all trials. Pindar® GT is a commercial formulation containing a pre-mix of penoxsulam+oxyfluorfen (10+476 grams of active ingredient per liter (g ai/L), respectively). Vine crop stage was dormant (no leaves on the vines during the winter) or early spring growth at the time of Compound I or Compound II application. Generally, weeds were not emerged for the pre-emergence treatments or were at the two to six-leaf stage at the time of the post-emergence herbicide application.
# (§3) Tables 1, 2 and 6 provide weed control results from pre-emergence applications of Compounds I and/or II prior to weed emergence; Tables 4, 7 and 8 provide weed control results from post-emergence applications of Compounds I and/or II applied to actively growing weeds; Tables 3 and 5 provide vine response data from pre-emergence and post-emergence applications of Compound I respectively.
# [2] = tested on: MEDPO (Medicago polymorpha, California burclover); assay: as above
# Source text: as §1, §2, §3
# [3] = tested on: STEME (Stellaria media, common chickweed); assay: as above
# Source text: as §1, §2, §3
# [4] = tested on: EROCI (Erodium cicutarium, redstem filaree); assay: as above
# Source text: as §1, §2, §3
# [5] = tested on: CAPBP (Capsella bursa-pastoris, Shepherd's purse); assay: Field trial, pre-emergence application (February), California vineyards: visual weed control
# Source text: as §1, §2, §3
# [6] = tested on: CLNCM (Calandrinia ciliata, rock purslane); assay: as above
# Source text: as §1, §2, §3
# [7] = tested on: AMSIN (Amsinckia intermedia, coast fiddleneck); assay: as above
# Source text: as §1, §2, §3
# [8] = tested on: IPOSS (Ipomoea spp, morningglory); assay: Field trial, post-emergence directed dormant application (December), California vineyards: visual weed control
# Source text: as §1, §2, §3
# [9] = tested on: AMARE (Amaranthus retroflexus, redroot pigweed); assay: as above
# Source text: as §1, §2, §3
# [10] = tested on: CAPBP (Capsella bursa-pastoris, Shepherd's purse); assay: as above
# Source text: as §1, §2, §3
# [11] = tested on: CHEAL (Chenopodium album, common lambsquarters); assay: as above
# Source text: as §1, §2, §3
# [12] = tested on: AMSIN (Amsinckia intermedia, coast fiddleneck); assay: as above
# Source text: as §1, §2, §3
smiles,measurement,setting,value
"COc1c(Cl)ccc(-c2nc(C(=O)OCc3ccccc3)c(Cl)c(N)c2F)c1F [II-Bn, benzyl 4-amino-3-chloro-5-fluoro-6-(4-chloro-2-fluoro-3-methoxyphenyl)pyridine-2-carboxylate]",% Visual Control 59 DAA MALPA,[1]; 5 g ai/ha,61.9%
same,% Visual Control 59 DAA MALPA,[1]; 10 g ai/ha,83.4%
same,% Visual Control 59 DAA MALPA,[1]; 20 g ai/ha,90%
same,% Visual Control 59 DAA MALPA,[1]; 40 g ai/ha,95%
same,% Visual Control 59 DAA MALPA,[1]; 50 g ai/ha,96.7%
same,% Visual Control 59 DAA MEDPO,[2]; 5 g ai/ha,100%
same,% Visual Control 59 DAA MEDPO,[2]; 10 g ai/ha,100%
same,% Visual Control 59 DAA MEDPO,[2]; 20 g ai/ha,100%
same,% Visual Control 59 DAA MEDPO,[2]; 40 g ai/ha,100%
same,% Visual Control 59 DAA MEDPO,[2]; 50 g ai/ha,100%
same,% Visual Control 59 DAA STEME,[3]; 5 g ai/ha,70%
same,% Visual Control 59 DAA STEME,[3]; 10 g ai/ha,75%
same,% Visual Control 59 DAA STEME,[3]; 20 g ai/ha,84.3%
same,% Visual Control 59 DAA STEME,[3]; 40 g ai/ha,94.3%
same,% Visual Control 59 DAA STEME,[3]; 50 g ai/ha,97.3%
same,% Visual Control 59 DAA EROCI,[4]; 5 g ai/ha,81.7%
same,% Visual Control 59 DAA EROCI,[4]; 10 g ai/ha,85%
same,% Visual Control 59 DAA EROCI,[4]; 20 g ai/ha,85%
same,% Visual Control 59 DAA EROCI,[4]; 40 g ai/ha,94.3%
same,% Visual Control 59 DAA EROCI,[4]; 50 g ai/ha,96%
same,% Visual Control 48 DAA CAPBP,[5]; 5 g ai/ha,0%
same,% Visual Control 48 DAA CAPBP,[5]; 10 g ai/ha,60%
same,% Visual Control 48 DAA CAPBP,[5]; 20 g ai/ha,76.7%
same,% Visual Control 48 DAA CAPBP,[5]; 40 g ai/ha,100%
same,% Visual Control 48 DAA CAPBP,[5]; 50 g ai/ha,96.7%
same,% Visual Control 48 DAA CLNCM,[6]; 5 g ai/ha,0%
same,% Visual Control 48 DAA CLNCM,[6]; 10 g ai/ha,40%
same,% Visual Control 48 DAA CLNCM,[6]; 20 g ai/ha,56.7%
same,% Visual Control 48 DAA CLNCM,[6]; 40 g ai/ha,90%
same,% Visual Control 48 DAA CLNCM,[6]; 50 g ai/ha,96.7%
same,% Visual Control 48 DAA AMSIN,[7]; 5 g ai/ha,0%
same,% Visual Control 48 DAA AMSIN,[7]; 10 g ai/ha,33.3%
same,% Visual Control 48 DAA AMSIN,[7]; 20 g ai/ha,40%
same,% Visual Control 48 DAA AMSIN,[7]; 40 g ai/ha,87.3%
same,% Visual Control 48 DAA AMSIN,[7]; 50 g ai/ha,84.3%
same,% Visual Control 57 DAA IPOSS,[8]; 5 g ai/ha,55%
same,% Visual Control 57 DAA IPOSS,[8]; 10 g ai/ha,46.7%
same,% Visual Control 57 DAA IPOSS,[8]; 20 g ai/ha,66.7%
same,% Visual Control 57 DAA IPOSS,[8]; 40 g ai/ha,66.7%
same,% Visual Control 57 DAA IPOSS,[8]; 50 g ai/ha,97.3%
same,% Visual Control 57 DAA AMARE,[9]; 5 g ai/ha,100%
same,% Visual Control 57 DAA AMARE,[9]; 10 g ai/ha,95%
same,% Visual Control 57 DAA AMARE,[9]; 20 g ai/ha,100%
same,% Visual Control 57 DAA AMARE,[9]; 40 g ai/ha,100%
same,% Visual Control 57 DAA AMARE,[9]; 50 g ai/ha,100%
same,% Visual Control 57 DAA CAPBP,[10]; 5 g ai/ha,100%
same,% Visual Control 57 DAA CAPBP,[10]; 10 g ai/ha,100%
same,% Visual Control 57 DAA CAPBP,[10]; 20 g ai/ha,100%
same,% Visual Control 57 DAA CAPBP,[10]; 40 g ai/ha,100%
same,% Visual Control 57 DAA CAPBP,[10]; 50 g ai/ha,100%
same,% Visual Control 57 DAA CHEAL,[11]; 5 g ai/ha,96.7%
same,% Visual Control 57 DAA CHEAL,[11]; 10 g ai/ha,100%
same,% Visual Control 57 DAA CHEAL,[11]; 20 g ai/ha,100%
same,% Visual Control 57 DAA CHEAL,[11]; 40 g ai/ha,100%
same,% Visual Control 57 DAA CHEAL,[11]; 50 g ai/ha,100%
same,% Visual Control 57 DAA AMSIN,[12]; 5 g ai/ha,56.7%
same,% Visual Control 57 DAA AMSIN,[12]; 10 g ai/ha,96.7%
same,% Visual Control 57 DAA AMSIN,[12]; 20 g ai/ha,86.7%
same,% Visual Control 57 DAA AMSIN,[12]; 40 g ai/ha,100%
same,% Visual Control 57 DAA AMSIN,[12]; 50 g ai/ha,100%
"O=C(O)CNCP(=O)(O)O [Glyphosate, glyphosate, reference compound]",% Visual Control 59 DAA MALPA,[1]; 1680 g ae/ha,86.7%
same,% Visual Control 59 DAA MEDPO,[2]; 1680 g ae/ha,100%
same,% Visual Control 59 DAA STEME,[3]; 1680 g ae/ha,93.3%
same,% Visual Control 59 DAA EROCI,[4]; 1680 g ae/ha,91%
same,% Visual Control 48 DAA CAPBP,[5]; 1680 g ae/ha,0%
same,% Visual Control 48 DAA CLNCM,[6]; 1680 g ae/ha,0%
same,% Visual Control 48 DAA AMSIN,[7]; 1680 g ae/ha,0%
same,% Visual Control 57 DAA IPOSS,[8]; 1680 g ae/ha,51.7%
same,% Visual Control 57 DAA AMARE,[9]; 1680 g ae/ha,0%
same,% Visual Control 57 DAA CAPBP,[10]; 1680 g ae/ha,99.3%
same,% Visual Control 57 DAA CHEAL,[11]; 1680 g ae/ha,95%
same,% Visual Control 57 DAA AMSIN,[12]; 1680 g ae/ha,100%

# Reference: patent US20220039384A1, “SELECTIVE WEED CONTROL WITH HALAUXIFEN OR 4-AMINO-3-CHLORO-5-FLUORO-6-(4-CHLORO-2-FLUORO-3-METHOXYPHENYL) PYRIDINE-2-CARBOXYLIC ACID OR DERIVATIVES THEREOF IN VINEYARDS OR PERENNIAL CROPS” (Corteva Agriscience LLC, priority 2013, published 2022)
